Assay results as given in patent US6809096B1, “Phenanthroline-7-one derivatives and their therapeutic uses” (Laboratoire L. Lafon, priority 1999, dated 2004).

How the values were obtained:
[1] = Determination of the maximum tolerated dose (MTD); details: mouse, in vivo, ip; B6D2F1/Jico mice, single intraperitoneal administration, survival over 14 days, doses 2.5 to 160 mg/kg; read-out: DMT (mg/kg) (Maximum Tolerated Doses)
Procedure: (§1) 2—Determination of the Maximum Tolerated Dose (MTD)
(§2) The evaluation of the maximum tolerated dose was carried out on B6D2F1/Jico mice aged from 4 to 6 weeks. The compounds were administered intraperitoneally at increasing doses ranging from 2.5 to 160 mg/kg. The value of the MTD (expressed in mg/kg) is determined from the observation of the survival rates of the animals over a period of 14 days after a single administration of the product under consideration. The change in the weight of the animals is also monitored over this period. When that the value of the MTD is greater than 160 mg/kg, the value of the MTD is categorized as 160 mg/kg by default.

HI-MXT tumours = assay: In vivo antitumour activity, hormone-insensitive mouse mammary carcinoma MXT (HI-MXT), tumour growth; details: 5 mg/kg intraperitoneally; for Tumour area (expressed as %): decrease (−) or increase (+) in HI-MXT tumour area vs control on the 21st day after grafting, 6 administrations
Procedure: The tests were carried out on models of:
hormone-insensitive mouse mammary carcinoma MXT (HI-MXT),
The model of mouse mammary adenocarcinoma MXT of Watson C. et al. (Cancer Res., 1977; […]: 3344-48), grafted onto B6D2F1/Jico mice aged from 4 to 6 weeks, is derived from the mammary gland milk ducts. Initially hormone-sensitive (HS-MXT model), the differentiated tumour develops in the direction of an undifferentiated hormone-insensitive tumour (HI-MXT model). […] This is the case, for example, with cyclophosphamide, etoposide or adriamycin.
(§3) When the MTD value of a product was determined, its in vivo antitumour activity was characterized at the MTD/2, MTD/4 and MTD/8 doses on the models of mammary adenocarcinoma of mouse origin HS-MXT and of mouse mammary carcinoma HI-MXT and on the model of subcutaneous lymphoma L 1210.
(§4) In all the examples presented below, whatever the model, the control condition is represented by a batch of 9 or 15 mice to which is administered, for 3 consecutive weeks and at the rate of 3 administrations (Monday, Wednesday and Friday) per week, a volume of 0.2 ml of physiological saline comprising the solvent used to dissolve the various compounds of formula (I) and (Ia) used.
i)—The tumour growth was evaluated by measuring twice weekly (Monday and Friday) the area of the grafted HS-MXT, HI-MXT or L 1210 tumours. This area is calculated by multiplying the value of the two greatest perpendicular axes of the tumour. The value of these axes is measured using a sliding caliper.
The influence of the two products CRL 8293 and CRL 8294 on the growth of HI-MXT tumours will be presented below by way of example. Each batch of mice grafted with HI-MXT tumours relating to a given experimental condition comprises 15 animals.
The product CRL 8293 is administered intraperitoneally. The first injection of the product is carried out on the seventh day postgrafting (D7) at the rate of 3 injections per week (Monday, Wednesday and Friday) for 3 consecutive weeks and at a dose of 5 mg/kg.
The product CRL 8294 is administered intraperitoneally. The first injection of the product is carried out on the seventh day postgrafting (D7) at the rate of 3 injections per week (Monday, Wednesday and Friday) for 3 consecutive weeks and at a dose of 5 mg/kg.
The decreases (−) or the increases (+) in the area of the HI-MXT tumours induced with treatments 1 and 2 with respect to the control condition on the 21st day after the tumour grafting, i.e. after 6 administrations of the product CRL 8293 or of the product CRL 8294, are shown, as percentage, in the following Table II. 100% of the control animals are still alive on the 21st day postgrafting.

B6D2F1/Jico mice = assay: Determination of the maximum tolerated dose (MTD); details: mouse, in vivo, ip
Procedure: as §1, §2

lymphoma L 1210 = assay: In vivo antitumour activity, subcutaneous lymphoma L 1210, survival (T/C); design: species or system mouse
Procedure: The model of lymophoma L 1210 is a model of L 1210 leukemia cells of mouse origin grafted subcutaneously in the mouse. They give rise, in 100% of cases, to a rapid-growth subcutaneous solid tumour (L 1210 s.c.).
as §3, §4
ii)—The survival rate of the mice is calculated in the form or a ratio T/C, where: [formula]
This ratio represents the mean survival time of the […] of the batch of treated mice with respect to the mean survival time of the median mouse of the batch of control mice. Thus, a molecule induces a significant (P<0.05) increase in the survival of the animals when the T/C index exceeds 130%. On the other hand, it has a toxic effect when this T/C value is less than 70%. […]

SMILES: O=C1c2cccnc2-c2nccc3ccnc1c23 [CRL 8293, 7H-Pyrido[4,3,2-de][1,10]phenanthroline-7-one]
- MTD at 14 days [1]: 10 mg/kg
- growth of the HI-MXT tumours (in words) (HI-MXT tumours): significant decrease
- Tumour area (expressed as %) (HI-MXT tumours): −33%

SMILES: O=C1c2ncccc2-c2nccc3ccnc1c23 [CRL 8294, 7H-Pyrido[4,3,2-de][1,7phenanthroline-7-one]
- DMT (mg/kg) (Maximum Tolerated Doses) (B6D2F1/Jico mice): 10 mg/kg
- growth of the HI-MXT tumours (in words) (HI-MXT tumours): significant decrease
- Tumour area (expressed as %) (HI-MXT tumours): −36%
- mean survival time of the median mouse (in words) (lymphoma L 1210; subcutaneous lymphoma L 1210, vs control mice): significant extension
- T/C (expressed a %) (lymphoma L 1210; survival ratio treated/control, L 1210 s.c., 1.25 mg/kg intraperitoneally, 3 injections per week for 3 weeks from D7): 136%
